According to PubChem BioAssay AID258 (DTP/NCI, 2004):
Values joined by “and” are separate entries in the source; they are usually repeats but may differ in a detail not shown here. Equal values may be shown once. Toxic doses and inconclusive results are not listed.

Tested on: CD2F1 mice, L1210 leukemia sc, survival T/C
Assay: NCI In Vivo Anticancer Drug Screen. Data for tumor model L1210 Leukemia (subcutaneous) in CD2F1 (CDF1) mice
Details: endpoint: median survival time, higher = longer survival
How it was run: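 Read-out: survival or tumor size. Value = treated (T) / vehicle control (C). Transplantable tumor in mice.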

For O=C1c2ccccc2C(=O)c2c(NCCNCCO)ccc(NCCNCCO)c21, the T/C (dose: 0.5 mg/kg/injection, schedule: Q01DX009 (ip), vehicle: saline with Tween-80) was 97 % of control, the T/C (dose: 0.5 mg/kg/injection, schedule: Q01DX009 (ip), vehicle: saline) was 97 % of control and the T/C (dose: 1.0 mg/kg/injection, schedule: Q01DX009 (ip), vehicle: saline with Tween-80) was 98 % of control. The T/C (dose: 1.0 mg/kg/injection, schedule: Q01DX009 (ip), vehicle: saline) was 102 % of control and 106 % of control and 86 % of control, the T/C (dose: 2.0 mg/kg/injection, schedule: Q01DX009 (ip), vehicle: saline with Tween-80) was 101 % of control and the T/C (dose: 2.0 mg/kg/injection, schedule: Q01DX009 (ip), vehicle: saline) was 102 % of control and 108 % of control. For the same compound, the T/C (dose: 4.0 mg/kg/injection, schedule: Q01DX009 (ip), vehicle: Klucel (hydroxypropylcellulose) (HPC)) was 98 % of control, the T/C (dose: 4.0 mg/kg/injection, schedule: Q01DX009 (ip), vehicle: saline) was 105 % of control and 97 % of control and the T/C (dose: 4.0 mg/kg/injection, schedule: Q01DX009 (ip), vehicle: water) was 101 % of control. For the same compound, the T/C (dose: 4.0 mg/kg/injection, schedule: Q01DX009 (oral), vehicle: saline) was 94 % of control, the T/C (dose: 4.0 mg/kg/injection, schedule: Q01DX009 (sc), vehicle: Klucel (hydroxypropylcellulose) (HPC)) was 114 % of control and 124 % of control and the T/C (dose: 8.0 mg/kg/injection, schedule: Q01DX005 (oral), vehicle: Klucel (hydroxypropylcellulose) (HPC)) was 99 % of control. For the same compound, the T/C (dose: 8.0 mg/kg/injection, schedule: Q01DX005 (oral), vehicle: water) was 96 % of control, the T/C (dose: 8.0 mg/kg/injection, schedule: Q01DX009 (ip), vehicle: Klucel (hydroxypropylcellulose) (HPC)) was 122 % of control and 112 % of control and the T/C (dose: 8.0 mg/kg/injection, schedule: Q01DX009 (ip), vehicle: saline) was 93 % of control. The T/C (dose: 8.0 mg/kg/injection, schedule: Q01DX009 (ip), vehicle: water) was 104 % of control, the T/C (dose: 8.0 mg/kg/injection, schedule: Q01DX009 (oral), vehicle: saline) was 96 % of control and the T/C (dose: 8.0 mg/kg/injection, schedule: Q01DX009 (sc), vehicle: water) was 156 % of control. For the same compound, the T/C (dose: 16.0 mg/kg/injection, schedule: Q01DX005 (oral), vehicle: Klucel (hydroxypropylcellulose) (HPC)) was 106 % of control, the T/C (dose: 16.0 mg/kg/injection, schedule: Q01DX005 (oral), vehicle: water) was 96 % of control and the T/C (dose: 16.0 mg/kg/injection, schedule: Q01DX009 (ip), vehicle: Klucel (hydroxypropylcellulose) (HPC)) was 108 % of control. For the same compound, the T/C (dose: 16.0 mg/kg/injection, schedule: Q01DX009 (ip), vehicle: water) was 102 % of control, the T/C (dose: 16.0 mg/kg/injection, schedule: Q01DX009 (oral), vehicle: saline) was 96 % of control and the T/C (dose: 16.0 mg/kg/injection, schedule: Q01DX009 (sc), vehicle: Klucel (hydroxypropylcellulose) (HPC)) was 177 % of control and 122 % of control and 243 % of control. For the same compound, the T/C (dose: 16.0 mg/kg/injection, schedule: Q01DX009 (sc), vehicle: water) was 578 % of control, the T/C (dose: 32.0 mg/kg/injection, schedule: Q01DX005 (oral), vehicle: Klucel (hydroxypropylcellulose) (HPC)) was 103 % of control and the T/C (dose: 32.0 mg/kg/injection, schedule: Q01DX005 (oral), vehicle: water) was 99 % of control. The T/C (dose: 32.0 mg/kg/injection, schedule: Q01DX009 (ip), vehicle: Klucel (hydroxypropylcellulose) (HPC)) was 120 % of control and 119 % of control, the T/C (dose: 32.0 mg/kg/injection, schedule: Q01DX009 (ip), vehicle: saline) was 104 % of control and the T/C (dose: 32.0 mg/kg/injection, schedule: Q01DX009 (ip), vehicle: water) was 111 % of control. For the same compound, the T/C (dose: 32.0 mg/kg/injection, schedule: Q01DX009 (oral), vehicle: saline) was 94 % of control, the T/C (dose: 32.0 mg/kg/injection, schedule: Q01DX009 (sc), vehicle: Klucel (hydroxypropylcellulose) (HPC)) was 200 % of control and 225 % of control and the T/C (dose: 32.0 mg/kg/injection, schedule: Q01DX009 (sc), vehicle: water) was 243 % of control. The T/C (dose: 64.0 mg/kg/injection, schedule: Q01DX005 (oral), vehicle: Klucel (hydroxypropylcellulose) (HPC)) was 93 % of control, the T/C (dose: 64.0 mg/kg/injection, schedule: Q01DX005 (oral), vehicle: water) was 103 % of control and the T/C (dose: 64.0 mg/kg/injection, schedule: Q01DX009 (ip), vehicle: saline) was 108 % of control and 89 % of control. For the same compound, the T/C (dose: 64.0 mg/kg/injection, schedule: Q01DX009 (oral), vehicle: saline) was 97 % of control, the T/C (dose: 64.0 mg/kg/injection, schedule: Q01DX009 (sc), vehicle: Klucel (hydroxypropylcellulose) (HPC)) was 92 % of control and the T/C (dose: 128.0 mg/kg/injection, schedule: Q01DX005 (oral), vehicle: Klucel (hydroxypropylcellulose) (HPC)) was 97 % of control. The T/C (dose: 128.0 mg/kg/injection, schedule: Q01DX005 (oral), vehicle: water) was 99 % of control, the T/C (dose: 128.0 mg/kg/injection, schedule: Q01DX009 (ip), vehicle: Klucel (hydroxypropylcellulose) (HPC)) was 122 % of control and the T/C (dose: 128.0 mg/kg/injection, schedule: Q01DX009 (ip), vehicle: saline) was 101 % of control. The T/C (dose: 128.0 mg/kg/injection, schedule: Q01DX009 (ip), vehicle: water) was 114 % of control, the T/C (dose: 128.0 mg/kg/injection, schedule: Q01DX009 (oral), vehicle: saline) was 102 % of control and the T/C (dose: 128.0 mg/kg/injection, schedule: Q01DX009 (sc), vehicle: Klucel (hydroxypropylcellulose) (HPC)) was 211 % of control. The T/C (dose: 256.0 mg/kg/injection, schedule: Q01DX005 (oral), vehicle: Klucel (hydroxypropylcellulose) (HPC)) was 98 % of control, the T/C (dose: 256.0 mg/kg/injection, schedule: Q01DX009 (oral), vehicle: saline) was 101 % of control and the T/C (dose: 512.0 mg/kg/injection, schedule: Q01DX009 (oral), vehicle: saline) was 93 % of control.

In the case of COc1cccc2c1C(=O)c1c(O)c3c(c(O)c1C2=O)CC(O)(C(C)=O)CC3OC1CC(N)C(O)C(C)O1 (configuration not stated), the T/C (dose: 2.9 mg/kg/injection, schedule: Q01DX009 (ip), vehicle: saline) is reported as 96 % of control, the T/C (dose: 5.8 mg/kg/injection, schedule: Q01DX009 (ip), vehicle: saline) is reported as 96 % of control and the T/C (dose: 11.7 mg/kg/injection, schedule: Q01DX009 (ip), vehicle: saline) is reported as 98 % of control. For the same compound, the T/C (dose: 23.4 mg/kg/injection, schedule: Q01DX009 (ip), vehicle: saline) was 103 % of control and the T/C (dose: 46.8 mg/kg/injection, schedule: Q01DX009 (ip), vehicle: saline) was 108 % of control.

For O=C(O)CCCc1ccc(N(CCCl)CCCl)cc1, the T/C (dose: 1.5 mg/kg/injection, schedule: Q01DX009 (ip), vehicle: saline with Tween-80) was 98 % of control, the T/C (dose: 3.0 mg/kg/injection, schedule: Q01DX009 (ip), vehicle: saline with Tween-80) was 107 % of control and the T/C (dose: 6.0 mg/kg/injection, schedule: Q01DX009 (ip), vehicle: saline with Tween-80) was 107 % of control. For the same compound, the T/C (dose: 12.0 mg/kg/injection, schedule: Q01DX009 (ip), vehicle: saline with Tween-80) was 123 % of control.
